Literature values as cited in patent publication US20080249137A1, “PPAR active compounds” (priority 2005, published 2008).

Assays:
PPARδ = target: T1, PPARδ (Homo sapiens, UniProt Q03181)
T1 sequence (Q03181 1-441): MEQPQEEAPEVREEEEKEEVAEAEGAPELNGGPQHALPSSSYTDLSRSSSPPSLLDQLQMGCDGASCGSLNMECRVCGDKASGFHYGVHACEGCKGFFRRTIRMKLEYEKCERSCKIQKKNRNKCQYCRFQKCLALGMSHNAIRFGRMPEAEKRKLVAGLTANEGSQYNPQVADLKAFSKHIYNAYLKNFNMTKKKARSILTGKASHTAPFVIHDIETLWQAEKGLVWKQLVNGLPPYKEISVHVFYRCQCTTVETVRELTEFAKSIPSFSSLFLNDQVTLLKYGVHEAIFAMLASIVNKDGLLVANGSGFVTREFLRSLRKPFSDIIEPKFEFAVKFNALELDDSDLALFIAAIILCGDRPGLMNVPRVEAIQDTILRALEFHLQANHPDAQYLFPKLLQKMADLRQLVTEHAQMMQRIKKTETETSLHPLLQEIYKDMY

murine PPARα = target: T2, murine PPARα (Mus musculus, UniProt P23204)
T2 sequence (P23204 1-468): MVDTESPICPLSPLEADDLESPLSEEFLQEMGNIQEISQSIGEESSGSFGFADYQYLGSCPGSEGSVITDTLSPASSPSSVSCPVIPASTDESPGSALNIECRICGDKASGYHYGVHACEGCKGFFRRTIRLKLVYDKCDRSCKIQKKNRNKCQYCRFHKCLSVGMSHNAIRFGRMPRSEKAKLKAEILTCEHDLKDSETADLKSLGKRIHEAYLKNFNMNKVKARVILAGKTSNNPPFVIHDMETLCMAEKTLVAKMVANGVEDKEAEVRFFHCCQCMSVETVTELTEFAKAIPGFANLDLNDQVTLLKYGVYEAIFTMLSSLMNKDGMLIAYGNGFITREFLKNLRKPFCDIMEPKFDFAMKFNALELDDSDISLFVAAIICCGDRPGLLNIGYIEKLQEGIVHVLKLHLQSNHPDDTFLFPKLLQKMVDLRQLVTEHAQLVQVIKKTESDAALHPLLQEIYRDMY

[1] = patients, large prospective trial

Structure (SMILES)	agonist selectivity for PPARδ over PPARγ (PPARδ)	activity on murine PPARα (murine PPARα)	reduction in cardiovascular events or death [1]
CCCc1c(OCCCOc2ccc(OCC(=O)O)cc2)ccc(C(C)=O)c1O [Compound L-165041]	approximately 30 fold	inactive	
Cc1ccc(C)c(OCCCC(C)(C)C(=O)O)c1 [gemfibrozil]			22%
